PubChem BioAssay AID1963829 (Molecular Pharmacology Branch, DTP, NCI, 2024)

Tested on: 935938-334-R-J1-PDC complex spheroid viability
Assay: Anticancer human tumor 935938-334-R-J1-PDC patient-derived small intestine adenocarcinoma cell line growth inhibition [POLQ]
Conditions: for IC50: curve of first compound; for viability, T/C: stronger effect = lower value
Summary of the method: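 Growth inhibition in 3D: complex spheroids (tumor PDC, HUVEC, MSC) treated with POLQ inhibitor combinations; where Cmax unknown, highest tested concentration 10 microM, except SN-38 at 1 microM.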

[1] = second compound 0.0316 µM, first compound 0.0316 µM
[2] = second compound 0.0316 µM, first compound 0.1 µM
[3] = second compound 0.0316 µM, first compound 0.316 µM
[4] = second compound 0.0316 µM, first compound 1 µM
[5] = second compound 0.0316 µM, first compound 3.16 µM
[6] = second compound 0.0316 µM, first compound 10 µM
[7] = second compound 0.1 µM, first compound 0.0316 µM
[8] = second compound 0.1 µM, first compound 0.1 µM
[9] = second compound 0.1 µM, first compound 0.316 µM
[10] = second compound 0.1 µM, first compound 1 µM
[11] = second compound 0.1 µM, first compound 3.16 µM
[12] = second compound 0.1 µM, first compound 10 µM
[13] = second compound 0.316 µM, first compound 0.0316 µM
[14] = second compound 0.316 µM, first compound 0.1 µM
[15] = second compound 0.316 µM, first compound 0.316 µM
[16] = second compound 0.316 µM, first compound 1 µM
[17] = second compound 0.316 µM, first compound 3.16 µM
[18] = second compound 0.316 µM, first compound 10 µM
[19] = second compound 1 µM, first compound 0.0316 µM
[20] = second compound 1 µM, first compound 0.1 µM
[21] = second compound 1 µM, first compound 0.316 µM
[22] = second compound 1 µM, first compound 1 µM
[23] = second compound 1 µM, first compound 3.16 µM
[24] = second compound 1 µM, first compound 10 µM
[25] = second compound 3.16 µM, first compound 0.0316 µM
[26] = second compound 3.16 µM, first compound 0.1 µM
[27] = second compound 3.16 µM, first compound 0.316 µM
[28] = second compound 3.16 µM, first compound 1 µM
[29] = second compound 3.16 µM, first compound 3.16 µM
[30] = second compound 3.16 µM, first compound 10 µM
[31] = second compound 10 µM, first compound 0.0316 µM
[32] = second compound 10 µM, first compound 0.1 µM
[33] = second compound 10 µM, first compound 0.316 µM
[34] = second compound 10 µM, first compound 1 µM
[35] = second compound 10 µM, first compound 3.16 µM
[36] = second compound 10 µM, first compound 10 µM
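Note: spheroids exposed to drugs for seven days before viability read.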
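Throughout, for viability, T/C: 100% = DMSO vehicle control wells.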

## COc1cc2cc(C(=O)CCC(=O)O)sc2cc1OC + COC1C(OC(N)=O)C(O)C(Oc2ccc3c(O)c(NC(=O)c4ccc(O)c(CC=C(C)C)c4)c(=O)oc3c2C)OC1(C)C
Second compound 0.0316 µM
  IC50: > 10 µM
Second compound 0.1 µM
  IC50: > 10 µM
Second compound 0.316 µM
  IC50: > 10 µM
Second compound 1 µM
  IC50: > 10 µM
Second compound 3.16 µM
  IC50: > 10 µM
Second compound 10 µM
  IC50: > 10 µM
[1]
  viability, T/C: 101%
[2]
  viability, T/C: 98.3%
[3]
  viability, T/C: 113%
[4]
  viability, T/C: 83.7%
[5]
  viability, T/C: 108%
[6]
  viability, T/C: 110%
[7]
  viability, T/C: 103%
[8]
  viability, T/C: 118%
[9]
  viability, T/C: 97.9%
[10]
  viability, T/C: 110%
[11]
  viability, T/C: 92.4%
[12]
  viability, T/C: 135%
[13]
  viability, T/C: 128%
[14]
  viability, T/C: 131%
[15]
  viability, T/C: 109%
[16]
  viability, T/C: 98%
[17]
  viability, T/C: 112%
[18]
  viability, T/C: 105%
[19]
  viability, T/C: 99.2%
[20]
  viability, T/C: 98.3%
[21]
  viability, T/C: 90.8%
[22]
  viability, T/C: 112%
[23]
  viability, T/C: 108%
[24]
  viability, T/C: 83.1%
[25]
  viability, T/C: 106%
[26]
  viability, T/C: 96.1%
[27]
  viability, T/C: 96.9%
[28]
  viability, T/C: 101%
[29]
  viability, T/C: 109%
[30]
  viability, T/C: 95.4%
[31]
  viability, T/C: 171%
[32]
  viability, T/C: 118%
[33]
  viability, T/C: 98%
[34]
  viability, T/C: 101%
[35]
  viability, T/C: 80.8%
[36]
  viability, T/C: 109%

## O=C(Nc1ccc(O)c(NS(=O)(=O)c2ccc(F)cc2)c1)c1ccc(-c2ccccc2)cc1 + COC1C(OC(N)=O)C(O)C(Oc2ccc3c(O)c(NC(=O)c4ccc(O)c(CC=C(C)C)c4)c(=O)oc3c2C)OC1(C)C
Second compound 0.0316 µM
  IC50: > 10 µM
Second compound 0.1 µM
  IC50: > 10 µM
Second compound 0.316 µM
  IC50: > 10 µM
Second compound 1 µM
  IC50: > 10 µM
Second compound 3.16 µM
  IC50: > 10 µM
Second compound 10 µM
  IC50: > 10 µM
[1]
  viability, T/C: 77.9%
[2]
  viability, T/C: 134%
[3]
  viability, T/C: 107%
[4]
  viability, T/C: 102%
[5]
  viability, T/C: 89.1%
[6]
  viability, T/C: 66.7%
[7]
  viability, T/C: 115%
[8]
  viability, T/C: 97.3%
[9]
  viability, T/C: 86.5%
[10]
  viability, T/C: 97%
[11]
  viability, T/C: 90.8%
[12]
  viability, T/C: 72.4%
[13]
  viability, T/C: 95.3%
[14]
  viability, T/C: 97.9%
[15]
  viability, T/C: 102%
[16]
  viability, T/C: 75.9%
[17]
  viability, T/C: 93.3%
[18]
  viability, T/C: 73.6%
[19]
  viability, T/C: 106%
[20]
  viability, T/C: 109%
[21]
  viability, T/C: 96.2%
[22]
  viability, T/C: 93%
[23]
  viability, T/C: 116%
[24]
  viability, T/C: 77%
[25]
  viability, T/C: 105%
[26]
  viability, T/C: 93.3%
[27]
  viability, T/C: 85.2%
[28]
  viability, T/C: 109%
[29]
  viability, T/C: 87.6%
[30]
  viability, T/C: 75.2%
[31]
  viability, T/C: 145%
[32]
  viability, T/C: 99.7%
[33]
  viability, T/C: 128%
[34]
  viability, T/C: 84.4%
[35]
  viability, T/C: 97.2%
[36]
  viability, T/C: 67.6%

## COc1cccc2c1C(=O)c1c(O)c3c(c(O)c1C2=O)CC(O)(C(=O)CO)CC3OC1CC(N)C(O)C(C)O1 (stereo unspecified) + Cc1cccc(N(C)C(=O)C2C(O)CCN2c2nc(C)cc(C(F)(F)F)c2C#N)c1
Second compound 0.0316 µM
  IC50: 0.0555 µM
Second compound 0.1 µM
  IC50: 0.0874 µM
Second compound 0.316 µM
  IC50: 0.052 µM
Second compound 1 µM
  IC50: 0.0753 µM
Second compound 3.16 µM
  IC50: 0.0705 µM
Second compound 10 µM
  IC50: < 0.0316 µM
[1]
  viability, T/C: 60.2%
[2]
  viability, T/C: 35.3%
[3]
  viability, T/C: 34.6%
[4]
  viability, T/C: 21.2%
[5]
  viability, T/C: 7.49%
[6]
  viability, T/C: 4.38%
[7]
  viability, T/C: 63.8%
[8]
  viability, T/C: 48.5%
[9]
  viability, T/C: 31.6%
[10]
  viability, T/C: 23.7%
[11]
  viability, T/C: 7.55%
[12]
  viability, T/C: 3.7%
[13]
  viability, T/C: 56.5%
[14]
  viability, T/C: 41.8%
[15]
  viability, T/C: 26.8%
[16]
  viability, T/C: 19.7%
[17]
  viability, T/C: 8.13%
[18]
  viability, T/C: 5.68%
[19]
  viability, T/C: 75.8%
[20]
  viability, T/C: 34.2%
[21]
  viability, T/C: 31.4%
[22]
  viability, T/C: 19.3%
[23]
  viability, T/C: 5.12%
[24]
  viability, T/C: 5.59%
[25]
  viability, T/C: 63.8%
[26]
  viability, T/C: 39.4%
[27]
  viability, T/C: 35.3%
[28]
  viability, T/C: 19.8%
[29]
  viability, T/C: 2.97%
[30]
  viability, T/C: 4.99%
[31]
  viability, T/C: 49.4%
[32]
  viability, T/C: 33.8%
[33]
  viability, T/C: 37.7%
[34]
  viability, T/C: 16.8%
[35]
  viability, T/C: 5.04%
[36]
  viability, T/C: 5.34%
